Data reported in patent US20260263454A1, “USES OF A CHECKPOINT KINASE 1 (CHK1) INHIBITOR” (Boundless Bio, Inc., priority 2023, published 2026).

Legend:
[1] = system: ecDNA+ FGFR2 amplified SNU-16 CDX tumor model; experiment: Durability of anti-tumor response in SNU-16 CDX model, subsequent study; assay type: in vivo, Female BALB/c nude mice; conditions: single agents vs vehicle: Compound 1 50 mg/kg PO Q2D, infigratinib 15 mg/kg PO QD
Source text: (§1) Tumor volume (mm^3) data are shown as mean z SEM for each treatment group. […] PO: orally, mpk: mg/kg, QD: once per day, Q2D: once every other day.

[2] = system: ecDNA+ FGFR2 amplified SNU-16 CDX tumor model; experiment: Anti-tumor and PD activity in ecDNA+ FGFR2 amplified SNU-16 CDX model, first study; assay type: in vivo, female SCID beige mice
Source text: as §1

[3] = system: ecDNA+ CDK4 amplified SJSA-1 CDX tumor model; experiment: Anti-tumor activity in ecDNA+ CDK4 amplified osteosarcoma SJSA-1 CDX model; assay type: in vivo, Female Hsd:Athymic Nude-Foxnlnu mice; conditions: vs vehicle
Source text: Tumor volume (mm^3) data are shown as mean±SEM for each treatment group. […] PO: orally, QD: once every day, Q2D: once every other day.

SMILES | mean % ΔTGI [1] [%] | mean % ΔTGI ([2]; Day 12 vs vehicle, single agents: Compound 1 100 mg/kg PO Q2D, infigratinib 15 mg/kg PO QD) [%] | antitumor activity (in words) ([2]; infigratinib 15 mg/kg PO QD alone or with Compound 1 PO Q2D) | tumor FGFR2 gene copy number (qPCR) ([2]; tumors treated for 12 days, infigratinib 15 mg/kg PO QD alone or with Compound 1 25, 50, 100 mg/kg PO Q2D) | mean % ΔTGI ([3]; single agent 20 mg/kg PO QD, Study 2 (FIG. 3B)) [%] | mean % ΔTGI ([3]; single agent 50 mg/kg PO QD, Study 1 (FIG. 3A)) [%]
CCN1CCN(c2ccc(Nc3cc(N(C)C(=O)Nc4c(Cl)c(OC)cc(OC)c4Cl)ncn3)cc2)CC1 [infigratinib] | 65.4 | 97.6 | tumors resumed growth | concomitant increase in FGFR2 gene copy number |  | 
CC(=O)c1c(C)c2cnc(Nc3ccc(N4CCNCC4)cn3)nc2n(C2CCCC2)c1=O [palbociclib] |  |  |  |  | 16.9 | 78.3
